Results reported in patent publication US9708314B2, “Heterocyclic amide compound” (NISSAN CHEMICAL INDUSTRIES, LTD., priority 2013, dated 2017).

Assays:
Format in all cases: in vivo
Triticum aestivum = assay: Test Example 4: effect on crop by application to foliage (diluvial soil, plastic box); details: for e: effect on crop, Triticum aestivum: application to foliage, application herbicide amount 320 g/ha
How it was run: (§1)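 Read-out is a 0–5 visual grade of herbicidal ratio (5: ≥90%, almost withered; 0: ≤5%) taken three weeks after treatment. Compound was applied as a diluted emulsion to stem and leaf parts of 14-day greenhouse-grown plants (25° C. to 30° C.) at rates expressed as g/ha.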

Zea mays = assay: as above; details: for c: effect on crop, Zea mays: application to foliage, application herbicide amount 320 g/ha
How it was run: as §1

Glycine max = assay: as above; details: for d: effect on crop, Glycine max: application to foliage, application herbicide amount 320 g/ha
How it was run: as §1

[1] = tested on: Beta vulgaris ssp. vulgaris; assay: as above; details: for f: effect on crop, Beta vulgaris ssp. vulgaris: application to foliage, application herbicide amount 320 g/ha
How it was run: as §1

Brassica campestris L. = assay: as above; details: for g: effect on crop, Brassica campestris L.: application to foliage, application herbicide amount 320 g/ha
How it was run: as §1

[2] = tested on: directly sowed Oryza sativa; assay: as above; details: for b: effect on crop, directly sowed Oryza sativa: application to foliage, application herbicide amount 320 g/ha
How it was run: as §1

Digitaria ciliaris = assay: Test Example 4: herbicidal effect by application to foliage (diluvial soil, plastic box); details: for F: herbicidal effect on Digitaria ciliaris: application to foliage, application herbicide amount 320 g/ha
How it was run: as §1

Alopecurus myosuroides = assay: as above; details: for J: herbicidal effect on Alopecurus myosuroides: application to foliage, application herbicide amount 320 g/ha
How it was run: as §1

Abutilon theophrasti = assay: as above; details: for M: herbicidal effect on Abutilon theophrasti: application to foliage, application herbicide amount 320 g/ha
How it was run: as §1

Lolium multiflorum Lam. = assay: as above; details: for K: herbicidal effect on Lolium multiflorum Lam.: application to foliage, application herbicide amount 320 g/ha
How it was run: as §1

Apera spica-venti. = assay: as above; details: for L: herbicidal effect on Apera spica-venti.: application to foliage, application herbicide amount 320 g/ha
How it was run: as §1

Galium spurium = assay: as above; details: for Q: herbicidal effect on Galium spurium: application to foliage, application herbicide amount 320 g/ha
How it was run: as §1

Setaria viridis = assay: as above; details: for G: herbicidal effect on Setaria viridis: application to foliage, application herbicide amount 320 g/ha
How it was run: as §1

[3] = tested on: Echinochloa crus-galli var. crus-galli; assay: as above; details: for H: herbicidal effect on Echinochloa crus-galli var. crus-galli: application to foliage, application herbicide amount 320 g/ha
How it was run: as §1

Chenopodium album = assay: as above; details: for O: herbicidal effect on Chenopodium album: application to foliage, application herbicide amount 320 g/ha
How it was run: as §1

Avena fatua = assay: as above; details: for I: herbicidal effect on Avena fatua: application to foliage, application herbicide amount 320 g/ha
How it was run: as §1

Cyperus difformis = assay: Test Example 3: herbicidal effect by application to foliage (Wagner pot, water depth 0.1-0.5 cm); details: Nineteenth Table; application to foliage; application herbicide amount 320 g/ha
How it was run: (§2)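 Plants are raised 14 days from seed in flooded-surface Wagner pots at 25–30 °C, sprayed on stems and leaves with diluted emulsion at a predetermined rate, and rated three weeks on using a 0–5 herbicidal-ratio scale (5 ≥90%).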

[4] = tested on: Echinochloa crus-galli var. crus-galli; assay: as above; details: Nineteenth Table; application to foliage; application herbicide amount 320 g/ha
How it was run: as §2

Leptochloa chinensis = assay: as above; details: Nineteenth Table; application to foliage; application herbicide amount 320 g/ha
How it was run: as §2

[5] = Application herbicide amount 320 g/ha, effect on crop
[6] = Application herbicide amount 320 g/ha

Structure (SMILES)	E (herbicidal effect grade) (Cyperus difformis)	H (herbicidal effect grade) [4]	D (herbicidal effect grade) (Leptochloa chinensis)	e: effect on crop, Triticum aestivum (Triticum aestivum)	c: effect on crop, Zea mays (Zea mays)	d: effect on crop, Glycine max (Glycine max)	f: effect on crop, Beta vulgaris ssp. vulgaris [1]	g: effect on crop, Brassica campestris L. (Brassica campestris L.)	b: effect on crop, directly sowed Oryza sativa [2]	F: herbicidal effect on Digitaria ciliaris (Digitaria ciliaris)	J: herbicidal effect on Alopecurus myosuroides (Alopecurus myosuroides)	M: herbicidal effect on Abutilon theophrasti (Abutilon theophrasti)	K: herbicidal effect on Lolium multiflorum Lam. (Lolium multiflorum Lam.)	L: herbicidal effect on Apera spica-venti. (Apera spica-venti.)	Q: herbicidal effect on Galium spurium (Galium spurium)	G: herbicidal effect on Setaria viridis (Setaria viridis)	H: herbicidal effect on Echinochloa crus-galli var. crus-galli [3]	O: herbicidal effect on Chenopodium album (Chenopodium album)	I: herbicidal effect on Avena fatua (Avena fatua)	also measured
Cc1nnc(NC(=O)c2ccc(C(F)(F)F)n3c(CC(=O)NC(C)C)nnc23)o1 [1-061]	3 (Herbicidal ratio of 40% or more and less than 70%)	5 (Herbicidal ratio of 90% or more (almost completely withered))	4 (Herbicidal ratio of 70% or more and less than 90%)																	e (Triticum aestivum; [5]): 0 (Herbicidal ratio of 5% or less (almost no effect)); b (Zea mays; [5]): 1 (Herbicidal ratio of 5% or more and less than 20%); c (Glycine max; [5]): 1 (Herbicidal ratio of 5% or more and less than 20%); f [1, 5]: 4 (Herbicidal ratio of 70% or more and less than 90%); g (Brassica campestris L.; [5]): 4 (Herbicidal ratio of 70% or more and less than 90%); d [2, 5]: 4 (Herbicidal ratio of 70% or more and less than 90%); F (Digitaria ciliaris; [6]): 3 (Herbicidal ratio of 40% or more and less than 70%); J (Alopecurus myosuroides; [6]): 1 (Herbicidal ratio of 5% or more and less than 20%); M (Abutilon theophrasti; [6]): 5 (Herbicidal ratio of 90% or more (almost completely withered)); K (Lolium multiflorum Lam.; [6]): 1 (Herbicidal ratio of 5% or more and less than 20%); L (Apera spica-venti.; [6]): 1 (Herbicidal ratio of 5% or more and less than 20%); Q (Galium spurium; [6]): 4 (Herbicidal ratio of 70% or more and less than 90%); G (Setaria viridis; [6]): 3 (Herbicidal ratio of 40% or more and less than 70%); H [3, 6]: 4 (Herbicidal ratio of 70% or more and less than 90%); O (Chenopodium album; [6]): 5 (Herbicidal ratio of 90% or more (almost completely withered)); I (Avena fatua; [6]): 3 (Herbicidal ratio of 40% or more and less than 70%)
C=CCc1nnc2c(C(=O)Nc3nnco3)ccc(C(F)(F)F)n12 [1-158]	4 (Herbicidal ratio of 70% or more and less than 90%)	5 (Herbicidal ratio of 90% or more (almost completely withered))	4 (Herbicidal ratio of 70% or more and less than 90%)	2 (Herbicidal ratio of 20% or more and less than 40%)	0 (Herbicidal ratio of 5% or less (almost no effect))	4 (Herbicidal ratio of 70% or more and less than 90%)	5 (Herbicidal ratio of 90% or more (almost completely withered))	3 (Herbicidal ratio of 40% or more and less than 70%)	0 (Herbicidal ratio of 5% or less (almost no effect))	5 (Herbicidal ratio of 90% or more (almost completely withered))	1 (Herbicidal ratio of 5% or more and less than 20%)	4 (Herbicidal ratio of 70% or more and less than 90%)	2 (Herbicidal ratio of 20% or more and less than 40%)	3 (Herbicidal ratio of 40% or more and less than 70%)	3 (Herbicidal ratio of 40% or more and less than 70%)	4 (Herbicidal ratio of 70% or more and less than 90%)	5 (Herbicidal ratio of 90% or more (almost completely withered))	5 (Herbicidal ratio of 90% or more (almost completely withered))	3 (Herbicidal ratio of 40% or more and less than 70%)	
C=CCN(C)c1nnc2c(C(=O)Nc3nnc(C)o3)ccc(C(F)(F)F)n12 [1-166]		4 (Herbicidal ratio of 70% or more and less than 90%)	3 (Herbicidal ratio of 40% or more and less than 70%)	0 (Herbicidal ratio of 5% or less (almost no effect))	0 (Herbicidal ratio of 5% or less (almost no effect))	4 (Herbicidal ratio of 70% or more and less than 90%)	5 (Herbicidal ratio of 90% or more (almost completely withered))	4 (Herbicidal ratio of 70% or more and less than 90%)	0 (Herbicidal ratio of 5% or less (almost no effect))	5 (Herbicidal ratio of 90% or more (almost completely withered))	0 (Herbicidal ratio of 5% or less (almost no effect))	3 (Herbicidal ratio of 40% or more and less than 70%)	1 (Herbicidal ratio of 5% or more and less than 20%)	1 (Herbicidal ratio of 5% or more and less than 20%)	1 (Herbicidal ratio of 5% or more and less than 20%)	4 (Herbicidal ratio of 70% or more and less than 90%)	5 (Herbicidal ratio of 90% or more (almost completely withered))	5 (Herbicidal ratio of 90% or more (almost completely withered))	1 (Herbicidal ratio of 5% or more and less than 20%)	
Cc1nnc(NC(=O)c2ccc(C(F)(F)F)n3c(CC#N)nnc23)o1 [1-168]		4 (Herbicidal ratio of 70% or more and less than 90%)	3 (Herbicidal ratio of 40% or more and less than 70%)	1 (Herbicidal ratio of 5% or more and less than 20%)	0 (Herbicidal ratio of 5% or less (almost no effect))	3 (Herbicidal ratio of 40% or more and less than 70%)	5 (Herbicidal ratio of 90% or more (almost completely withered))	3 (Herbicidal ratio of 40% or more and less than 70%)	3 (Herbicidal ratio of 40% or more and less than 70%)	5 (Herbicidal ratio of 90% or more (almost completely withered))	0 (Herbicidal ratio of 5% or less (almost no effect))	3 (Herbicidal ratio of 40% or more and less than 70%)	1 (Herbicidal ratio of 5% or more and less than 20%)	0 (Herbicidal ratio of 5% or less (almost no effect))	1 (Herbicidal ratio of 5% or more and less than 20%)	4 (Herbicidal ratio of 70% or more and less than 90%)	5 (Herbicidal ratio of 90% or more (almost completely withered))	5 (Herbicidal ratio of 90% or more (almost completely withered))	1 (Herbicidal ratio of 5% or more and less than 20%)	
COCCc1nnc2c(C(=O)Nc3nnc(C)o3)ccc(C(F)(F)F)n12 [1-173]		5 (Herbicidal ratio of 90% or more (almost completely withered))	4 (Herbicidal ratio of 70% or more and less than 90%)	1 (Herbicidal ratio of 5% or more and less than 20%)	0 (Herbicidal ratio of 5% or less (almost no effect))	4 (Herbicidal ratio of 70% or more and less than 90%)	5 (Herbicidal ratio of 90% or more (almost completely withered))	4 (Herbicidal ratio of 70% or more and less than 90%)	3 (Herbicidal ratio of 40% or more and less than 70%)	4 (Herbicidal ratio of 70% or more and less than 90%)	1 (Herbicidal ratio of 5% or more and less than 20%)	5 (Herbicidal ratio of 90% or more (almost completely withered))	1 (Herbicidal ratio of 5% or more and less than 20%)	1 (Herbicidal ratio of 5% or more and less than 20%)	4 (Herbicidal ratio of 70% or more and less than 90%)	3 (Herbicidal ratio of 40% or more and less than 70%)	5 (Herbicidal ratio of 90% or more (almost completely withered))	5 (Herbicidal ratio of 90% or more (almost completely withered))	2 (Herbicidal ratio of 20% or more and less than 40%)	
